Results reported in patent publication US20020150553A1, “Compositions containing C-terminal polypeptides of angiogenic chemokines and methods of use” (The Regents of the University of California, priority 1999, published 2002).

Legend:
[1] = tested on: blood vessels of the chorioallantoic membrane (CAM); assay: Angiogenesis assays in the CAM (chorioallantoic membrane); assay type: in vivo, chicken; conditions: for new sprouting of blood vessels of the CAM: 4 days after application; for percent of blood vessels oriented towards the pellet minus percent directed away: cCAF peptide 100-300 ng; for angiogenesis / oriented blood vessel growth after preincubation with antibody: peptide (100-300 ng) preincubated with excess of an antibody prepared against it
Experimental: (§1) These assays were done as previously described [Martins-Green et al. (1998)]. Briefly, fertilized chicken eggs were incubated for 3 days at 37° C., at which time 2 ml of albumin were withdrawn to drop the embryo and CAM away from the shelf. Windows were made on day 4, the holes covered with transparent tape, and the eggs placed back in the incubator until day 10 when the experiment was performed. Pellets were prepared by mixing the appropriate amount of reduced and non-reduced 9E3 peptides or bFGF with 1% methylcellulose (1:1) and then delivering 5-μl droplets on a bacterial dish and allowing them to dry in a sterile hood for approximately 30 min. This procedure generated small disc-shaped pellets 2 mm in diameter and ˜0.1 mm thick. These pellets containing various concentrations of protein were placed, under sterile conditions, between two large blood vessels of the 10-day-old CAMs. Two or four days later, the pellets and the surrounding area of the CAM were fixed in situ; the CAMs were then removed and examined for the presence of chemotaxis and/or angiogenesis. Angiogenesis was quantified by analysis of blood vessel orientation and/or increase in the number of vessels and sprouts (see below). Negative control pellets were prepared in the same way with 0.5% methylcellulose alone or with the same concentration of BSA as used for the cCAF peptide or with peptide preincubated with an antibody made against it [Martins-Green et al. (1992)].
As previously described, 10-day-old CAMs were used because at this stage of development the CAM close to the embryo is fully developed; the blood vessels in this area have stopped growing and assumed a tree-like pattern with short stubby tertiary branches (FIG. 2A). […] [Martins-Green et al. (1997); Vu M T, Smith C F, Burger P C, Klintworth G K (1985) Methods in laboratory investigation. An evaluation of methods to quantitate the chick chorioallantoic membrane assay in angiogenesis. Lab Invest 4:499-508; Klagsbrun M, D'Amore P A (1991) Regulators or angiogenesis. Annu Rev Physiol 53:217-239; Cockerill G W, Gamble J R, Vadas M A (1995) Angiogenesis: models and modulators. Interntl Rev Cytol 1.59:113-160; and Swerlick R A (1995) Angiogenesis. J Dermatol 22:845-852.]
The CAMs were then analyzed by making measurements of the orientation of the blood vessels relative to the pellet. For each concentration of the C-terminal peptide and for all controls, 6-10 CAMs were measured. Vessels were classified (FIG. 2A) as primary (largest), secondary (branches of primary vessels) and tertiary (all other vessels). […] The measurements were made without prior knowledge of which specimens were controls and which were cCAF. For secondary vessels; we looked for deviations in their orientations. For tertiary vessels, each vessel was approximated by a vector pointing in its growth direction. Each vector was resolved into components directed radially and tangentially with respect to the pellet; the definition of toward or away was determined from the radial component of the vector. For graphical presentation of the data, the percent of blood vessels growing toward the pellet was determined for secondary and tertiary vessels (FIG. 5).
Quantification of blood vessel sprouting was performed as described previously [Martins-Green et al. (1998)]. Briefly, a sprout was defined as a very small blood vessel having a length of one third or less that of the tertiary branches of the normal CAM. Sprouts thus defined were counted in the areas of the CAMs with pellets containing 1000 ng of C-terminal peptide. For CAMs treated with 1000 ng/pellet of C-terminal peptide, we counted sprouts on 90 mm total of 21 individual blood vessel segments from 6 different CAMs. For the BSA controls we counted sprouts on 123 mm of 24 segments of blood vessels.

[2] = Time-dependent release of the 9E3 peptide from methylcellulose pellets; assay type: physicochemical; conditions: 300 ng 125I-labeled peptide in 0.5% methylcellulose pellet, PBS, 37° C.
Experimental: Samples of 280 μl of saline were removed periodically for scintillation counting and replaced by fresh saline. Error bars represent the standard deviation for 15 samples taken at each time point.
Methylcellulose pellets containing either form of the peptide at different concentrations were placed on mature CAMs [see Martins-Green M, Feugate J E (1998) The 9E3/CEF4 gene product is a chemotactic and angiogenic factor that can initiate the wound healing cascade in vivo. Cytokine 10:522-535]. Because the peptide is much smaller than cCAF itself, it is possible that release from the pellet might be much more rapid than for the entire molecule. Therefore, before performing the experiments on the CAM we determined the kinetics of release of the C-terminal peptide from pellets under reducing conditions for which the peptide will be a monomer and therefore of smallest size.
Five microliters of 0.5% methylcellulose (Fisher) containing 300 ng of ^125I-labeled 9E3 peptide were placed in the bottom of 15 Eppendorf tubes (0.5 ml), allowed to dry and then covered with 300 μl of sterile PBS containing 0.02% sodium azide and incubated at 37° C. […] The label released into the fluid was counted in a scintillation counter to determine if and over what period of time the peptide was released.

leukocytes = assay: Chemotaxis for leukocytes and tissue changes in cross sections of treated CAMs; assay type: in vivo, chicken; conditions: for chemotaxis for leukocytes: 100 ng
Experimental: The cells inside the large blood vessel are erythrocytes (these chicken cells are nucleated). […] (C) Natural CAM showing sparse cells and a single blood vessel. Scale bars=100 μm.
as §1
Although the general structure of treated and untreated CAMs is the same, some differences were seen.

[3] = tested on: blood vessels of wing muscle tissue; assay: Angiogenic assays in 2-week-old chicks (peptide deposited under the skin of the wing); assay type: in vivo, chick; conditions: 1 μg/10 μl under the skin of the wing on two consecutive days, four days after first dose
Text: Hematoxylin and eosin stained cross sections of wing muscle tissue showing organization of the muscle fibers. (A) Very few blood vessels (arrowheads) can be seen amongst the untreated muscle fibers. A large nerve bundle can be seen (black dot) associated with three small blood vessels. (B) Similar section taken from the wing of a bird that has been treated with the C-terminus peptide. Note the presence of numerous small blood vessels (arrowheads) amongst the muscle fibers. (C) Similar section from a bird treated with only buffer vehicle for the peptide. The number of blood vessels (arrowheads) is similar to that of the control. Scale bar=50 μm.
To further test the angiogenic potential of the C-terminal peptide, 1 μg of the peptide in 10 μl of water was deposited under the skin of the underside of the wing of 2-week-old chicks on two consecutive days, and the tissues prepared for histology on the fourth day.
The C-terminal peptide was deposited under the skin of the under wing of […] chicks using a procedure described previously [Martins-Green M, Boudreau N, Bissell M J (1994) Inflammation is responsible for the development of wound tumors in RSV-infected newly-hatched chicks. Cancer Res 54:4334-4341]. Two samples of 1 μg/10 μl each, were applied on two consecutive days followed by a waiting period of 3 days. […]

[4] = supernatant of normal cultures of CEFs; cited from earlier work
[5] = higher doses, 600-1000 ng/pellet
[6] = CAM cross sections two days after application of pellets

With “IL-8: interleukin 8, ELR-CXC chemokine (SEQ ID NO:3)” the “new sprouting of blood vessels of the CAM” value ([1]; 500 ng per pellet) was “extensive new sprouting”.

For “C-terminal peptide: last 28 aas of the C-terminus of cCAF (residues 76 to 103 of SEQ ID NO:1), with cysteine No. 4 as N-terminal most aa (CLDPTAPWVQLIVKALMAKAQLNSDAPL; Gallusgallus)”, the “duration of slow, prolonged release from the pellet” value [2] was “up to 48 h”, the “period in which the majority of the peptide was released from the pellet” value ([2]; reducing conditions (monomer)) was ≤ 6 h and the “number of new sprouts relative to CAMs treated with BSA” value ([1]; 1000 ng/pellet) was “about 10 times”. For the same molecule, the “blood vessel growth towards the pellet” value ([1]; 100-300 ng per pellet) was “stimulated the blood vessels to grow towards the pellet”, the “tortuosity and sprouting effects after preincubation with antibody” value ([1]; 600-1000 ng/pellet, peptide preincubated with excess antibody directed against it) was “eliminated” and the “percent of blood vessels oriented towards the pellet minus percent directed away” value ([1]; bFGF 500 ng) was “marked blood vessel orientation toward the pellet”. The “reorientation of blood vessels” value [1, 5] was “greatly decreased”, the “sprouting of blood vessels” value [1, 5] was “abundant sprouting” and the “tortuosity of blood vessels” value [1, 5] was “marked tortuosity”. For the same molecule, the “most effective doses (significant increase in angiogenic activity: tortuosity and sprouting)” value ([1]; localized administration in CAM assay) was > 450 ng, the “percentage of CAMs showing reorientation and/or growth of blood vessels towards the pellet” value (shortened to “percentage”) ([1]; non-reduced peptide) was 94% and the “percentage” value ([1]; non-reduced peptide, listed as cCAF peptide) was ~100%. For the same molecule, the “angiogenesis / oriented blood vessel growth after preincubation with antibody” value [1] was “the effect was eliminated”, the “angiogenesis / oriented blood vessel growth after preincubation with antibody” value ([1]; listed as cCAF peptide) was “no angiogenesis was seen” and the “percentage” value ([1]; peptide under reducing conditions) was 96%. For the same molecule, the “percentage” value ([1]; peptide under reducing conditions, listed as cCAF peptide) was ~100%, the “most effective dose for oriented growth of secondary blood vessels” value ([1]; per pellet, secondary vessels) was ~100 ng and the “most effective dose for oriented growth of tertiary blood vessels” value ([1]; per pellet, tertiary vessels) was ~300 ng. For the same molecule, the “hyperproliferation of the ectoderm of the CAM” value (leukocytes; [6]) was “slightly hyperproliferated”, the chemotaxis for leukocytes (leukocytes; [6]) was “no chemotaxis for leukocytes” and the “leukocyte chemotaxis or granulation-like tissue formation” value (leukocytes; in vivo, CAM and chick wing) was “no evidence was found”. The “small blood vessels in muscle tissue underlying the site of application versus vehicle and normal wing” value [3] was “many more small blood vessels”.

With “bFGF: Basic fibroblast growth factor, positive control in the CAM assay [reference compound]” the “percent of blood vessels oriented towards the pellet minus percent directed away” value ([1]; bFGF 500 ng) was “marked blood vessel orientation toward the pellet”, the “percentage” value ([1]; positive control, 500 ng/pellet) was 100% and the “percent of secondary vessels deviated toward the pellet” value ([1]; secondary vessels, bFGF 500 ng) was “over 90%”. The “percent of tertiary vessels pointing in the direction of the pellet” value ([1]; tertiary vessels, bFGF 500 ng) was “less than 80%”.

B1: cCAF: Chicken chemotactic and angiogenic factor, product of the 9E3 gene, 9 kDa CXC chemokine (SEQ ID NO:1) (protein)
chain: MNGKLGAVLALLLVSAALSQGRTLVKMGNELRCQCISTHSKFIHPKSIQDVKLTPSGPHCKNVEIIATLKDGREVCLDPTAPWVQLIVKALMAKAQLNSDAPL
modifications: Gallusgallus
In the case of B1, the “new sprouting of blood vessels of the CAM” value ([1]; 450 ng per pellet) is listed as “extensive new sprouting”, the chemotaxis for leukocytes (leukocytes; [6]) is listed as “chemotactic for monocyte/macrophages and lymphocytes” and the “period for which the 9 kDa form is stable” value [4] is listed as 24 h.
